Data: US20100130614A1, “ADMINISTRATION OF ADAPALENE FOR MODULATING THE EXPRESSION OF IL-1ra” (GALDERMA RESEARCH & DEVELOPMENT, priority 2007, published 2010)
“Also recorded” adds a separate entry of the source.

Assays:
IL-1ra [1] = assay: ELISA assay of IL-1ra secreted in culture supernatants of explants of healthy skin; assay type: cell-based, human; conditions: for amount of IL-1ra secreted in the culture supernatants: healthy skin explants (n=8), 24 hours
Description: (§1) Fragments of healthy skin from 8 healthy donors were obtained from mammary plasties (plastic surgery) or from a foreskin (infant surgery).
(§2) The fragments of healthy skin and of acneic skin were incubated at 37° C. in a humid atmosphere and in the presence of 5% CO2 for 24 hours in KGM culture medium without hydrocortisone (PromoCell, Heidelberg, Germany). The culture medium was supplemented with 2 different concentrations of adapalene (Galderma, Sophia Antipolis): 10^−7 M and 10^−6 M. The culture medium alone served as control medium.
(§3) After incubation, the explants were removed from the culture medium and were then frozen in liquid nitrogen for the immunohistochemical study. The culture supernatants were frozen at −80° C. to evaluate the protein secretion using an ELISA assay technique.
(§4) The IL-1ra protein secretion […] in the culture supernatants of the explants of acneic skin and of healthy skin, incubated in the presence or absence of adapalene, was evaluated by means of an ELISA assay using the IL-1ra Cytoscreen detection kit (Biosource Europe S.A., Nivelles, Belgium) and according to the supplier's instructions.
(§5) A mean was established on 8 healthy donors or 8 acneic patients in each of the “control”, “10^−7 M adapalene” and “10^−6 M adapalene” groups.
(§6) The paired Wilcoxon test was employed for the statistical analysis, and p<0.05 (by comparison with the control medium) was considered to be significant.

RARγ = molecular target: T1, RARγ (Homo sapiens, UniProt P13631); conditions: cited from earlier work
T1 sequence (P13631 1-454): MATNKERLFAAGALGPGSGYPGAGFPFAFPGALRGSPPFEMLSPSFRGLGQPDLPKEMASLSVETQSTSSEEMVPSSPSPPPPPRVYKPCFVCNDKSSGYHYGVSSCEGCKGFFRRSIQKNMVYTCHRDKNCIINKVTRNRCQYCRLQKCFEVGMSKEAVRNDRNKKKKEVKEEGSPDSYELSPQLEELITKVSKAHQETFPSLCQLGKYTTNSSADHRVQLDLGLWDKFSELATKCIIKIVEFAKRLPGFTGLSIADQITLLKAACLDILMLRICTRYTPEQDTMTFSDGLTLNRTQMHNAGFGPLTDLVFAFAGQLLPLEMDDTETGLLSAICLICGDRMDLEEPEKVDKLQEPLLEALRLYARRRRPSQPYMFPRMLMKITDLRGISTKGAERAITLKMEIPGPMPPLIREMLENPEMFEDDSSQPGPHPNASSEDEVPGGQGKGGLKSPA

lipoxygenase pathway = conditions: cited from earlier work
IL-1ra [2] = assay: ELISA assay of IL-1ra secreted in culture supernatants of explants of acneic skin; assay type: cell-based, human; conditions: for secreted amount of IL-1ra: acneic skin explants (n=8), 24 hours; for increase of secreted IL-1ra compared with the control medium: acneic skin explants
Description: (§7) A skin biopsy (1×1.5 cm) was obtained from inflammatory papulae of lesions on the back of 8 acneic patients (having received no local treatment for 2 weeks or no general treatment for 1 month, or 3 months with isotretinoin). The fragments sampled were immediately placed in culture.
as §2, §3, §4, §5, §6

[3] = test system: cellular retinoic acid binding proteins; conditions: cited from earlier work
[4] = test system: polymorphonuclear neutrophils; conditions: cited from earlier work
[5] = test system: superficial inflammatory lesions; conditions: clinically; cited from earlier work
RARβ = molecular target: T2, RARβ (Homo sapiens, UniProt P10826); conditions: cited from earlier work
T2 sequence (P10826 1-455): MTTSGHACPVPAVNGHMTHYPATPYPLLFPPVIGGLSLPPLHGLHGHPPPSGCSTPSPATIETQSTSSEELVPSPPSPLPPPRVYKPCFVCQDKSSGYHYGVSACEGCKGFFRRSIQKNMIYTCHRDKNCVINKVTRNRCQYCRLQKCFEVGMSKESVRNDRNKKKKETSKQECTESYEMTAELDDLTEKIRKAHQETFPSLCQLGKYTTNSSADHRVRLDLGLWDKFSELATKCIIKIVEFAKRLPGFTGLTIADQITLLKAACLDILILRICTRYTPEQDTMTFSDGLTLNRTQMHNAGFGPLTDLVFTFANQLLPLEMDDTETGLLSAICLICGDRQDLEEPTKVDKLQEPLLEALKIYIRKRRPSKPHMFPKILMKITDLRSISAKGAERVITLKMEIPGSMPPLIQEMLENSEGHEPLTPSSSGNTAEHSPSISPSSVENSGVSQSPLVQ

free radicals = conditions: cited from earlier work
IL-1ra [6] = assay: Immunohistochemistry of IL-1ra expression in explants of healthy human skin; assay type: cell-based; conditions: for intensity of expression of IL-1ra / intensity of expression of IL-1ra in the epidermis: 24 hours; for intensity of expression of IL-1ra: scale 0-3; for intensity of expression of IL-1ra in the epidermis: healthy donors (n=8), scale 0=none to 3=strong, mean (+/−)
Description: as §1, §2, §3
(§8) The expression of IL-1ra was evaluated by an immunoperoxidase technique in the explants of healthy skin from 8 healthy donors and of the acneic skin from 8 patients.
For this, cryostat sections 5 μm thick were cut from the skin explants, and were then fixed in acetone at 4° C. for 10 minutes. After saturation of the nonspecific sites with bovine albumin (BSA) for 30 minutes at ambient temperature, the slides were incubated for 30 minutes at ambient temperature and in a humid atmosphere in the presence of the corresponding primary antibody [anti-IL-1ra monoclonal antibody at 10 μg/ml (R&D Systems)] or of an irrelevant isotype antibody for the negative control (normal goat IgG at (R&D Systems), IgG2a monoclonal antibody (DAKO, Trappes, France), IgG1 monoclonal antibody (DAKO)).
After washing for 15 minutes in TBS/0.1% BSA/0.05% Tween 20, the slides were incubated with a biotinylated secondary antibody (DAKO) for 30 minutes at ambient temperature and in a humid atmosphere. After a further washing step, the slides were incubated for 30 minutes in the presence of streptavidin/peroxidise (DAKO) for 30 minutes at ambient temperature and in a humid atmosphere. After a final wash, the slides were incubated for 5 minutes in the presence of AEC (DAKO), a substrate for peroxidise, and then counterstained with Mayer's hemalun. The slides were read under a microscope.
(§9) The slides were read under a Leitz microscope by 2 investigators.
A semi-quantitative scale was used to define the intensity of the labeling: 0=none, 1=weak, 2=medium, 3=strong.
as §5, §6

IL-1ra [7] = assay: Immunohistochemistry of IL-1ra expression in explants of acneic skin; assay type: cell-based, human; conditions: for intensity of expression of IL-1ra in the epidermis: acneic patients (n=8), 24 hours, scale 0-3
Description: as §7, §2, §3, §8
For this, cryostat sections 5 μm thick were cut from the skin explants, and were then fixed in acetone at 4° C. for 10 minutes. […]
After washing for 15 minutes in TBS/0.1% BSA/0.05% Tween 20, the slides were incubated with a biotinylated secondary antibody (DAKO) for 30 minutes at ambient temperature and in a humid atmosphere. […] The slides were read under a microscope.
as §9
A semi-quantitative scale was used to define the intensity of the labeling: 0=none, 1=weak, 2=medium, 3=strong. […]

COc1ccc(-c2ccc3cc(C(=O)O)ccc3c2)cc1C12CC3CC(CC(C3)C1)C2 [adapalene, 6-[3-(1-adamantyl)-4-methoxyphenyl]-2-naphthoic acid]
amount of IL-1ra secreted in the culture supernatants (IL-1ra [1]; 10^−6 M adapalene): 564 pg | amount of IL-1ra secreted in the culture supernatants (IL-1ra [1]; 10^−7 M adapalene): 600 pg | decrease of secreted IL-1ra compared with the control medium (IL-1ra [1]; healthy skin explants, 10^−6 M adapalene): 3.5% | increase of secreted IL-1ra compared with the control medium (IL-1ra [1]; healthy skin explants, 10^−7 M adapalene): 2.6% | binding to RARγ (in words) (RARγ): binds selectively | oxidative metabolism of arachidonic acid via the lipoxygenase pathway (in words) (lipoxygenase pathway): inhibits | production of leukotrienes via the lipoxygenase pathway (in words) (lipoxygenase pathway): inhibits | secreted amount of IL-1ra (IL-1ra [2]; 10^−6 M adapalene): 1161 pg | secreted amount of IL-1ra (IL-1ra [2]; 10^−7 M adapalene): 1196 pg | increase of secreted IL-1ra compared with the control medium (IL-1ra [2]; 10^−6 M adapalene): 1.4% | increase of secreted IL-1ra compared with the control medium (IL-1ra [2]; 10^−7 M adapalene): 4.4% | binding to cellular retinoic acid binding proteins (in words) [3]: does not, on the other hand, bind | chemotaxis of polymorphonuclear neutrophils (in words) [4]: inhibits | clinical activity on superficial inflammatory lesions (in words) [5]: exhibits an activity | binding to RARβ (in words) (RARβ): binds selectively | production of free radicals (in words) (free radicals): inhibits | intensity of expression of IL-1ra (IL-1ra [6]; 1st subgroup of healthy donors (n=4, weak control expression), 10^−6 M adapalene): 1.2 (+/−0.4) | intensity of expression of IL-1ra (IL-1ra [6]; 1st subgroup of healthy donors (n=4, weak control expression), 10^−7 M adapalene): 1.1 (+/−0.4) | modulatory effect on the expression of IL-1ra (in words) (IL-1ra [6]; 1st subgroup of healthy donors, expression in the control medium weak): an inducing effect | intensity of expression of IL-1ra (IL-1ra [6]; 2nd subgroup of healthy donors (n=4, greater control expression), 10^−6 M adapalene): 0.5 (+/−0.0) | intensity of expression of IL-1ra (IL-1ra [6]; 2nd subgroup of healthy donors (n=4, greater control expression), 10^−7 M adapalene): 0.5 (+/−0.0) | modulatory effect on the expression of IL-1ra (in words) (IL-1ra [6]; 2nd subgroup of healthy donors, expression in the control medium greater): an inhibitory effect | intensity of expression of IL-1ra in the epidermis (IL-1ra [6]; 10^−6 M adapalene): 0.8 (+/−0.4) | intensity of expression of IL-1ra in the epidermis (IL-1ra [6]; 10^−7 M adapalene): 0.9 (+/−0.5) | modulatory effect on the expression of IL-1ra in the epidermis (in words) (IL-1ra [6]; mean of 8 healthy donors, 10^−7 M and 10^−6 M): No significant modulation; also recorded: does not demonstrate a modulatory effect | intensity of expression of IL-1ra in the epidermis (IL-1ra [7]; 10^−6 M adapalene): 0.9 (+/−0.7) | intensity of expression of IL-1ra in the epidermis (IL-1ra [7]; 10^−7 M adapalene): 0.8 (+/−0.8) | effect on the expression of IL-1ra in the epidermis (in words) (IL-1ra [7]; acneic patients, 10^−7 M and 10^−6 M): increases the expression
